Experimental data published in patent US20050221285A1, “Method for identifying or screening anti-viral agents” (priority 2001, published 2005).
Converted amounts (≈) assume the structure as drawn.

System: RSV Long wild type
Experiment: Assay for compounds active against RSV (HEp2 cells, MTT cell viability)
Conditions: human respiratory syncytial virus, HEp-2
Method: Graded concentrations of test compounds were prepared by serial dilution in 96 well tissue culture plates containing 100 μL per well of assay media (Eagles Minimal Essential Medium (MEM) supplemented with 2% foetal bovine serum and Glutamine alanyl-L-glutamine). […] 1.5×10^4 of the diluted cells were added to several individual wells of each 96 well plate which were designated uninfected control wells. The remaining cell suspension was exposed to infectious RSV by addition of sufficient virus to the suspension to yield a concentration of 0.4 plaque forming units per cell. The cell-virus suspension was mixed well by inversion and 100 μL immediately dispensed into the remaining wells of the 96 well plates. Assay plates were incubated in a 37° C. incubator for 5 days. Viral replication was quantified by determination of cell viability substantially as described by Watanabe and colleagues (Watanabe, W. et al., J. Virol. Methods, 48: 257-265, 1994). Briefly, 100 μL of 3 mg/mL MTT (3(4,5-dimethylthiazol-2-yl)-2,5-diphenyltetrazolium bromide) was added to each well and plates incubated at 37° C. in a 5% CO2 incubator for 2 hours. […] The extent of metabolism was measured via determination of absorbance using a computer-controlled microplate reader at 540 nm with a reference wavelength of 690 nm. […]

NC(=O)c1ncn(C2O[C@H](CO)[C@@H](O)[C@H]2O)n1 (stereo partly drawn) [Ribavirin, 1-D-ribofuranosyl-1H-1,2,4-triazole-3-carboxamide]
EC50: 5.54 µg/mL (≈ 22.7 µM)
